# Measured values: patent publication US7250397B2, “Antiarrhythmic peptides” (Zealand Pharma A/S, priority 2000, dated 2007)
# “Also recorded” adds a separate entry of the source.
# What was measured:
# [1] = system: ventricular reentry arrhythmias; experiment: Ventricular reentry arrhythmias in dogs after coronary artery occlusion; type: in vivo, dog; conditions: i.v. bolus and infusion after CAO; from the lowest dose
# Procedure: Three dogs were studied in the anesthetized, open chest state to facilitate electrode placement for mapping. α-chloralose was given as a bolus (200 mg/kg) and then a constant infusion at 8 mg/kg/hr (dissolved in polyethylene glycol, MW=200). The femoral vein and artery was cannulated for administration of fluid and drugs and for measurement of ascending aortic pressure, respectively.
# The sinus node was clamped and the atrial appendage was paced with a programmable stimulator with constant current outputs at two times diastolic threshold. Pacing rate was ≧200 b/min to control heart rates. […] Endocardial Effective Refractory Period (ERP) was measured by the standard extrastimulus technique. Late ventricular diastolic threshold was measured during each intervention; the pacing current was four times threshold.
# Test sites were chosen along the shaft of 16 pole needles (J. Kassell, Fayetteville, N.C.); each pole completely surrounds the needle shaft to prevent directionality of needle orientation from recording of adjacent Purkinje strands. Six bipolar electrograms (1 mm spacing) were recorded sequentially down the shaft of the needle by amplifying up to 1000 times, filtering from 3-1300 Hz and recording via oscilloscope during atrial pacing. Four intramural electrograms are recorded on each multipolar needle. […]
# [2] = system: isolated perfused rabbit hearts; experiment: Isolated perfused rabbit hearts (Langendorff), APD90 dispersion
substance,measurement,setting,value
Ac-D-Tyr-D-Pro-D-4Hyp-Gly-D-Ala-Gly-NH2 [Compound 2],inducibility of reentry ventricular tachycardia (VT),[1],no longer inducible; also recorded: completely blocked; also recorded: No VT was inducible
same,"increase in APD90 dispersion during hypokalemic, acute myocardial ischemia",[2],prevented
